Laboratory results reported in ChEMBL document CHEMBL1128833, “Aliphatic replacements of the biphenyl moiety of the nonpeptidyl growth hormone secretagogues L-692,429 and L-692,585” (1995).

Organism: Rattus norvegicus
Assay: In vitro Growth hormone releasing activity in rat pituitary cells; weakly active at 1 uM
Format: functional
Details: Pituitary gland cell, read-out: ED50 (the source's name)

Row | SMILES | EC50 [nM]
1 | CC(C)(N)CC(=O)N[C@@H]1CCc2ccccc2N(Cc2ccc(-c3ccccc3)c(-c3nn[nH]n3)c2)C1=O | > 1000

Organism: Rattus norvegicus
Assay: In vitro Growth hormone releasing activity in rat pituitary cells
Format: functional, Pituitary gland cell
Details: Rattus norvegicus, Pituitary gland cell; read-out: ED50 (the source's name)

Row | SMILES | EC50 [nM]
2 | CC(C)(N)CC(=O)N[C@@H]1CCc2ccccc2N(CC2CCC(c3ccccc3-c3nn[nH]n3)CC2)C1=O (stereo partly specified) | 860
3 | CC(C)(N)CC(=O)N[C@@H]1CCc2ccccc2N(Cc2ccc(-c3ccccc3-c3nn[nH]n3)cc2)C1=O | 60
4 | C[C@@H](O)CNC(C)(C)CC(=O)N[C@@H]1CCc2ccccc2N(Cc2ccc(-c3ccccc3-c3nn[nH]n3)cc2)C1=O [L-692585] | 3
5 | C[C@@H](O)CNC(C)(C)CC(=O)N[C@@H]1CCc2ccccc2N(CC2CCC(c3ccccc3-c3nn[nH]n3)CC2)C1=O (stereo partly specified) | 75
6 | CC(C)(N)CC(=O)N[C@@H]1CCc2ccccc2N(Cc2ccccc2)C1=O | 7000
7 | CC(C)(N)CC(=O)N[C@@H]1CCc2ccccc2N(Cc2ccc(-c3ccccc3)cc2)C1=O | 3000

Same assay, conditions: read-out: ED50 (the source's name)

Row | SMILES | EC50 [nM]
8 | C[C@@H](O)CNC(C)(C)CC(=O)N[C@@H]1CCc2ccccc2N(CC2=CCC(c3ccccc3-c3nn[nH]n3)CC2)C1=O (stereo in doubt; 36) | 25
9 | CC(C)(N)CC(=O)N[C@@H]1CCc2ccccc2N(CC2=CCC(c3ccccc3-c3nn[nH]n3)CC2)C1=O (stereo in doubt; 35) | 120
10 | C[C@@H](O)CNC(C)(C)CC(=O)N[C@@H]1CCc2ccccc2N(CC2=CCC(c3ccccc3-c3nn[nH]n3)CC2)C1=O (stereo in doubt; 37) | 7
11 | CC(C)(N)CC(=O)N[C@@H]1CCc2ccccc2N(CC2=CCC(c3ccccc3-c3nn[nH]n3)CC2)C1=O (stereo in doubt; 34) | 1200
